Here are results for four compounds from ChEMBL document CHEMBL4431324, “Comparative Analysis of Binding Kinetics and Thermodynamics of Dipeptidyl Peptidase-4 Inhibitors and Their Relationship to Structure” (J Med Chem, 2016).

What is called Cmax is the maximum level reached in the sampled fluid or tissue. The term logD denotes lipophilicity at a set pH, counting ionised and neutral species. High values mean higher lipophilicity, low ones lower lipophilicity. The term IC50 denotes the concentration at which inhibition is half-maximal. The low end stands for higher potency, the high end for lower potency. Usually Kd stands for a measure of binding affinity in units of concentration. High values mean weaker binding, low ones tighter binding.

The nature of data set [1]: Cmax in human plasma at 5 mg. Format: ADME, cell-free. On the set-up: dose 5 mg.
Data set [2] in a line: Renal clearance in wild type mouse at 0.01 mg/kg, iv. Format: ADME, organism-based. The settings on record: in vivo.
A short description of data set [3]: Renal clearance in DPP4 knockout mouse at 0.01 mg/kg, iv. The class given is ADME, organism-based. The conditions noted are these: in vivo.
Data set [4] in a line: Lipophilicity, log D of the compound at pH 7.4. Format: physicochemical. The conditions noted are these: buffer.
For data set [5], the target named is T1, Muscarinic acetylcholine receptor M2 (Homo sapiens, UniProt P08172).
T1 sequence (P08172 whole entry): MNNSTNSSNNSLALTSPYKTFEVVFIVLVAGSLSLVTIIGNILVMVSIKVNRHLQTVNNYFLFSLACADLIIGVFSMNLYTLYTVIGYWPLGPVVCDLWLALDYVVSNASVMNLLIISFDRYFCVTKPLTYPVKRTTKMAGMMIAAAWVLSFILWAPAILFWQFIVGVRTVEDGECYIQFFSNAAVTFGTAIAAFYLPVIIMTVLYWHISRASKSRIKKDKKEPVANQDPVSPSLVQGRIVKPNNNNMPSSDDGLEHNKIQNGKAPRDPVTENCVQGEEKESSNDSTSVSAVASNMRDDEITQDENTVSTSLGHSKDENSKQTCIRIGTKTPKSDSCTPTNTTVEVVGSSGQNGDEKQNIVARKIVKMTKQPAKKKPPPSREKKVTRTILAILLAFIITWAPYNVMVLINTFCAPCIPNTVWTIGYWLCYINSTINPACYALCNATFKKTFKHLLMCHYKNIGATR
Briefly: Inhibition of M2 receptor (unknown origin).

Data set [6] concerns the target Muscarinic acetylcholine receptor M3 (Homo sapiens, UniProt P20309). Briefly: Inhibition of M3 receptor (unknown origin).
Data set [7] concerns the target T2, Dipeptidyl peptidase 4 (Homo sapiens, UniProt P27487).
Description: Binding affinity to human recombinant DPP4 (39 to 766 residues) by surface plasmon resonance analysis
The target of data set [8] is T2, Dipeptidyl peptidase 4. This is another data set of the same source.

The structures appear in SMILES notation.

T2 sequence (P27487 whole entry): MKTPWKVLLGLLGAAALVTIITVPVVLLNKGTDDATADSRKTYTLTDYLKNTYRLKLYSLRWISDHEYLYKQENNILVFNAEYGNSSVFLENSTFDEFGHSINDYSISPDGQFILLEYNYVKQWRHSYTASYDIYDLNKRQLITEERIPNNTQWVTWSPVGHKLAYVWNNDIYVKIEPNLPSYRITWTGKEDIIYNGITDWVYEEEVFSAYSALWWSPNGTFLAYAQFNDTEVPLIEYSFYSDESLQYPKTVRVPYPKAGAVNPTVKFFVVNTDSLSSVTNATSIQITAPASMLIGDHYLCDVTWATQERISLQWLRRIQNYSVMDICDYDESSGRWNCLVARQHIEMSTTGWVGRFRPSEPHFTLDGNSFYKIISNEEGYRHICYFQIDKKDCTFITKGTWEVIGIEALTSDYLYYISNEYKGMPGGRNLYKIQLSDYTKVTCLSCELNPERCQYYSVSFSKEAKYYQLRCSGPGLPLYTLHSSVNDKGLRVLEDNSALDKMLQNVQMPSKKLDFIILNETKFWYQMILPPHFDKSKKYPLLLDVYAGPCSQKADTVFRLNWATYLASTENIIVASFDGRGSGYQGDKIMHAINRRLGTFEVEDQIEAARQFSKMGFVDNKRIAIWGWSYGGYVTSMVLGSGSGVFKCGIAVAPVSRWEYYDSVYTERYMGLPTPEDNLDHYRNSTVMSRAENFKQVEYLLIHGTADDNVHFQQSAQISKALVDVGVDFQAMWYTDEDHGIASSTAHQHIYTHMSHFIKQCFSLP
Chain of Muscarinic acetylcholine receptor M3 (P20309 whole entry): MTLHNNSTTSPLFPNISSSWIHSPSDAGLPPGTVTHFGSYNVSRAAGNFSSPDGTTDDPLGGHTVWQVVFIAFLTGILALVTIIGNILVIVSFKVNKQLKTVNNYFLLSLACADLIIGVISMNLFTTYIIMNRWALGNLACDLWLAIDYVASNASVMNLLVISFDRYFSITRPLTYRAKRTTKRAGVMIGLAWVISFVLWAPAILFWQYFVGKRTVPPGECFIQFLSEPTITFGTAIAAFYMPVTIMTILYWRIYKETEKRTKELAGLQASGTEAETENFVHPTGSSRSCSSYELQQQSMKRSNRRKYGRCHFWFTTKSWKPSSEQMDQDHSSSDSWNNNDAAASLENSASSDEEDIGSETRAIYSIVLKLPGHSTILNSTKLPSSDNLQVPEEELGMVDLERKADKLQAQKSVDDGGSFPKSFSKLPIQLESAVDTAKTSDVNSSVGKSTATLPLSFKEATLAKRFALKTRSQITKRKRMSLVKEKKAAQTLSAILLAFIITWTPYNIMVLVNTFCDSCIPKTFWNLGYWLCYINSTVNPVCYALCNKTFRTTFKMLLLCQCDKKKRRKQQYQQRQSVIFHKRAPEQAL

In data set [1], `CC#CCn1c(N2CCC[C@@H](N)C2)nc2c1c(=O)n(Cc1nc(C)c3ccccc3n1)c(=O)n2C` [LINAGLIPTIN] came in with a Cmax of 10 nM. In addition, the CL is given as 2.7% in data set [2] and 24.2% in data set [3]. The compound further returned a logD in data set [4] of 0 to 1.6.

On to `CC(C)=CCn1c(N2CCC[C@H](N)C2)nc2c1c(=O)n(CC(=O)c1ccccc1)c(=O)n2C`, for which the IC50 in data set [5] and in data set [6] was 150 nM in each case. The compound also returned a logD in data set [4] of 0 to 1.6.

In the case of `O=c1[nH]c(=O)c2c(nc(N3CCNCC3)n2Cc2ccccc2)[nH]1`, the Kd in data set [7] was found to be 806 nM; in data set [8] it was 246 nM. For the same compound, the logD in data set [4] lay within 0 to 1.6.

`Cn1c(=O)c2c(nc(N3CCCC(N)C3)n2Cc2ccccc2)n(C)c1=O` (stereo unspecified) came in with a logD in data set [4] of 0 to 1.6.
